We go through four compounds from ChEMBL document CHEMBL5465560, “Selectivity Literature for EUbOPEN Chemogenomic Library” (2024).

In test [1] the target is T1, Histone-lysine N-methyltransferase NSD3 (Homo sapiens) (UniProt Q9BZ95).
T1 sequence (whole entry): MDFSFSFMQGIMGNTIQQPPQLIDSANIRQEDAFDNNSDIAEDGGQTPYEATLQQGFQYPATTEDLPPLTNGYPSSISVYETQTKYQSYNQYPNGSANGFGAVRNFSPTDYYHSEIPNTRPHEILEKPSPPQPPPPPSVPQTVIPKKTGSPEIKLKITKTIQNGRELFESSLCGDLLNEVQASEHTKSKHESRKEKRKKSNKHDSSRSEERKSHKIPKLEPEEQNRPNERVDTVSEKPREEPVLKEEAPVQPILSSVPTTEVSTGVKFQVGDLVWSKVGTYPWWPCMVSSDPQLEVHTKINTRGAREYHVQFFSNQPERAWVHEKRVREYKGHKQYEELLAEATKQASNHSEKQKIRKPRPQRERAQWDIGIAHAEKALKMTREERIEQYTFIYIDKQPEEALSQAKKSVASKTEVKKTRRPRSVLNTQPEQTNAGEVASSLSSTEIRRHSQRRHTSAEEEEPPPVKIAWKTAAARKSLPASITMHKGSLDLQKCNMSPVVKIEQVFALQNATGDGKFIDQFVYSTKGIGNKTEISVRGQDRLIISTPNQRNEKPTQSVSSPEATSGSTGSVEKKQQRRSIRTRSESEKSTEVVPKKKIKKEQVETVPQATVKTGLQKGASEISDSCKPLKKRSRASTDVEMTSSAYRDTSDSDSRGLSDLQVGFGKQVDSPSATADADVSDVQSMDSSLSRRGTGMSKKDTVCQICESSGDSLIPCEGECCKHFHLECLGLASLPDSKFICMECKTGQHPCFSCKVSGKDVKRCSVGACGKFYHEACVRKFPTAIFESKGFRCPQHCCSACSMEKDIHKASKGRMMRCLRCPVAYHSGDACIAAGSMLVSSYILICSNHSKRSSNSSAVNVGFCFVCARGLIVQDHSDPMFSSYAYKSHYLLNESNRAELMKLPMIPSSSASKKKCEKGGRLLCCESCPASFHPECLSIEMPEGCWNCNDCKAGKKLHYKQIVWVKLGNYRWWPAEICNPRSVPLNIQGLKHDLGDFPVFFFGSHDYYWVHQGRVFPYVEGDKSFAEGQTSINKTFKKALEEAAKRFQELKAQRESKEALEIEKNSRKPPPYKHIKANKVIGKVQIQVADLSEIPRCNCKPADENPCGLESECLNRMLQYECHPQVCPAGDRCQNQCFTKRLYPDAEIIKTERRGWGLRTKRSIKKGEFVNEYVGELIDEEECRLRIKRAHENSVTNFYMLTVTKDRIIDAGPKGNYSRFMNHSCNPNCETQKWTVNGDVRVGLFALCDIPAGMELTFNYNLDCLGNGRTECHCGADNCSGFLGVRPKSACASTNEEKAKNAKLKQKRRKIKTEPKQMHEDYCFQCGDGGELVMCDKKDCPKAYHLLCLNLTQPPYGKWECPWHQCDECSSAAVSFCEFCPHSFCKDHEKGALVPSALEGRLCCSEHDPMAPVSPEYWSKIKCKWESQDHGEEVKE
The test is described as follows: Selectivity interaction (Methyltransferase screen (Scintillation proximity assays)) EUB0000255b NSD3. A general note: In a scintillation proximity assay essentially only radioactivity close to the scintillant gives light.

For test [2], the system named is T2, Receptor-type tyrosine-protein kinase FLT3 (Homo sapiens), P36888 [D835H].
T2 sequence (whole entry): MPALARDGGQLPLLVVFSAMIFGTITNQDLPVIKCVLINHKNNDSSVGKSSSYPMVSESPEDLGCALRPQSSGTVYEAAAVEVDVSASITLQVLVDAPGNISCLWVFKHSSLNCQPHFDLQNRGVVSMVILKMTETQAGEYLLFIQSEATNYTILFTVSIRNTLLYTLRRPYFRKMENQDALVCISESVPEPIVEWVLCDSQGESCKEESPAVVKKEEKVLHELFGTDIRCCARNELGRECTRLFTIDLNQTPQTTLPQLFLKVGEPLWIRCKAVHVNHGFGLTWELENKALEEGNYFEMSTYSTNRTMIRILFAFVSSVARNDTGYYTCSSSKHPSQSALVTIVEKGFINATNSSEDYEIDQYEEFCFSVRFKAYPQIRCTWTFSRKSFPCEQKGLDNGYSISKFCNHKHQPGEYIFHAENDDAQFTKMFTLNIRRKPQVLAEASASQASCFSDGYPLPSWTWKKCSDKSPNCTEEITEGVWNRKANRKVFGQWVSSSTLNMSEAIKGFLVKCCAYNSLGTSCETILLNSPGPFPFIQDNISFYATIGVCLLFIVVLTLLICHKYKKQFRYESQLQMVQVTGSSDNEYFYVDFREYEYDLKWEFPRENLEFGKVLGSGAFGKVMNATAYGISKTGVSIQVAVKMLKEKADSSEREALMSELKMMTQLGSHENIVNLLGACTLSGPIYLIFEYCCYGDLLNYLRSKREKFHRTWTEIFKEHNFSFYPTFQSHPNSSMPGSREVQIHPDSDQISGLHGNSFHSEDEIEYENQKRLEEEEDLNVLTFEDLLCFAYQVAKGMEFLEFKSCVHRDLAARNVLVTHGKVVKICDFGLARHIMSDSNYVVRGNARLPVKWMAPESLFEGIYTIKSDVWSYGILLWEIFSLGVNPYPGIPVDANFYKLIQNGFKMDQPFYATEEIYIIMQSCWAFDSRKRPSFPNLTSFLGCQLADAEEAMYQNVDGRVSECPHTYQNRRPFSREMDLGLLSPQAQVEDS
To be noted: at 10 µM.

Test [3] concerns the target T3, Aurora kinase A (Homo sapiens) (UniProt O14965).
T3 sequence (whole entry): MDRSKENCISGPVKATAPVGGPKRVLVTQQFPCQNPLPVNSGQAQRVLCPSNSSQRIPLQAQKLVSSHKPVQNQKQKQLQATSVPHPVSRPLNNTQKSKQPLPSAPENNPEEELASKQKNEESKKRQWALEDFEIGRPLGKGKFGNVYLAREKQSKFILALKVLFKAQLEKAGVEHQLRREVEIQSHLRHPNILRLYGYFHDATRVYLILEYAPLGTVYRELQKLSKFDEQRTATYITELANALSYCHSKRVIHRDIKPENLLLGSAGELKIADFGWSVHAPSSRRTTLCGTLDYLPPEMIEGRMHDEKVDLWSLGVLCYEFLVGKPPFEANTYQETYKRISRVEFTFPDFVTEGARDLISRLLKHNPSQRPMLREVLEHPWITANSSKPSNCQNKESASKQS
Put plainly: Selectivity interaction (KinomeScan (DiscoverX)) EUB0000092b STK6. To be noted: at 10 µM.

Test [4] has as its target Mitogen-activated protein kinase 7 (Homo sapiens) (UniProt Q13164). Put plainly: Selectivity interaction (Kinase panel (KiNativ target engagement assay in Jurkat cells)) EUB0001635a MAPK7. The format is cell-based. To be noted: Selectivity number of off-targets 0.0, Selectivity number of targets 233.0, Source Knowledge https://www.sciencedirect.com/science/article/pii/S2451945619300674?via%3Dihub, at 1 µM.

Sequence of Mitogen-activated protein kinase 7 (Homo sapiens) (Q13164 2-816 limits assumed): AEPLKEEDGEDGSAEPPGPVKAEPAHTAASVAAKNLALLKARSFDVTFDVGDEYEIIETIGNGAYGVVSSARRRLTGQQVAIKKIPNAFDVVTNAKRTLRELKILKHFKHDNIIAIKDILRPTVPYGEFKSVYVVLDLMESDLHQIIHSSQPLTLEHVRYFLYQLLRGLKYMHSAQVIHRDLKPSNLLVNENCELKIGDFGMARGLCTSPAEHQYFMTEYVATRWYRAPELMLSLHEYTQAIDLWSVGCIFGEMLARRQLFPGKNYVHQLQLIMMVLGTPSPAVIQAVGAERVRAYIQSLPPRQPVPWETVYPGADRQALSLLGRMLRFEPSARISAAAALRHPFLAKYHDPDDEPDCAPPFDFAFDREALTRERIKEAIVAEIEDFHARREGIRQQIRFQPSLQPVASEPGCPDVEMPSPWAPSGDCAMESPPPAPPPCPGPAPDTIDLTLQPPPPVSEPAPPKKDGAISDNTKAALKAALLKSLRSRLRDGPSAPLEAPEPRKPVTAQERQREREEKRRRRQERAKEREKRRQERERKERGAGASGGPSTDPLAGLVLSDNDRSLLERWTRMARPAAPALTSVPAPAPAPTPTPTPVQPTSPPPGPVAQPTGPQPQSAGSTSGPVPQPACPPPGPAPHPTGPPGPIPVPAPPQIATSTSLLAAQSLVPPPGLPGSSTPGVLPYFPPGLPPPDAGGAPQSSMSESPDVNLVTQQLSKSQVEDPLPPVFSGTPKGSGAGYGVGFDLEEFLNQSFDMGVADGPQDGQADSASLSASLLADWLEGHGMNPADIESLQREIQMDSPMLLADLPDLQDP

Turning to `COCCN1CCC(c2cc(CN(C)C(=O)c3cccc(Oc4ccccc4)c3)ccn2)CC1`, the % activity was > 95% in test [1] (at 1 µM) and > 90% in test [1] (at 10 µM). Take `Cc1cc([C@@H](C)Nc2ccccc2C(=O)O)c2nc(N3CCOCC3)cc(=O)n2c1` [AZD-6482]: the % of control in test [2] is 27%. In test [3], `CCC(=O)N1CCN(c2ccc(-n3c(=O)ccc4cnc5ccc(-c6cnc7ccccc7c6)cc5c43)cc2C(F)(F)F)CC1` registered a % of control of 100%. Take `C=CC(=O)Nc1ccc(C(=O)Nc2[nH]nc3c2CN(C(=O)N[C@H](CN(C)C)c2ccccc2)C3(C)C)cc1`: in test [4], the % of engagement is -3.1%.
